The values that follow come from patent EP4800015A1, “AZABICYCLO DERIVATIVE AND PREPARATION METHOD THEREFOR, AND USE” (Zhejiang Hisun Pharmaceutical Co., Ltd., priority 2023, dated 2025).

The term IC50 denotes the point on the concentration scale where inhibition reaches its midpoint.

Data set [1] is described as follows: Pharmacokinetic test in mice after intragastric administration. The note with it: male, mouse, plasma, ICR mice, Oral (10 mg/kg). Format: in vivo. The procedure:
ICR mice were used as test animals, the plasma concentrations of the control compound HRO761 and the compounds of the present disclosure at different time points after intragastric administration were determined by LC/MS/MS method, and the pharmacokinetic characteristics of the compounds of the present disclosure in mice were studied.
ICR mice, male, 30.8 to 38.0 g, purchased from Vital River Laboratory Animal Technology Co., Ltd.
An appropriate amount of the test compound was weighed, and an appropriate amount of DMA (N,N-dimethylacetamide), 30% Solutol HS15 (30% polyethylene glycol-15 hydroxystearate), and Saline (saline) were added sequentially, the mixture was ultrasonicated and vortex mixed to prepare a 1 mg/mL dosing formulation. The ratio of DMA:30% Solutol HS15:Saline was 5:5:90 (v/v/v).
After overnight fasting, ICR mice in each test compound injection group (9 mice per group) were administered intragastrically (PO, compound dose was 10 mg/kg, administration volume was 10 mL/kg), and food was given 4 hours after administration.
About 0.1 mL of blood was collected via the orbital cavity before administration and at 0.25 h, 0.5 h, 1 h, 2 h, 4 h, 8 h, 10 h, and 24 h after administration, and whole blood samples were placed in anticoagulant tubes containing EDTA-K2. The samples were placed on ice after collection, and plasma was separated by centrifugation (centrifugation conditions: 1500 g, 10 minutes). The collected plasma was stored at -40 to -20 °C before analysis.
The content of the test compound in mouse plasma after intragastric administration was determined by LC-MS/MS.

Another data set deals with T1, recombinant human WRN (Homo sapiens, UniProt Q14191).
T1 construct: purchased BPS 101264
T1 sequence (Q14191 whole entry): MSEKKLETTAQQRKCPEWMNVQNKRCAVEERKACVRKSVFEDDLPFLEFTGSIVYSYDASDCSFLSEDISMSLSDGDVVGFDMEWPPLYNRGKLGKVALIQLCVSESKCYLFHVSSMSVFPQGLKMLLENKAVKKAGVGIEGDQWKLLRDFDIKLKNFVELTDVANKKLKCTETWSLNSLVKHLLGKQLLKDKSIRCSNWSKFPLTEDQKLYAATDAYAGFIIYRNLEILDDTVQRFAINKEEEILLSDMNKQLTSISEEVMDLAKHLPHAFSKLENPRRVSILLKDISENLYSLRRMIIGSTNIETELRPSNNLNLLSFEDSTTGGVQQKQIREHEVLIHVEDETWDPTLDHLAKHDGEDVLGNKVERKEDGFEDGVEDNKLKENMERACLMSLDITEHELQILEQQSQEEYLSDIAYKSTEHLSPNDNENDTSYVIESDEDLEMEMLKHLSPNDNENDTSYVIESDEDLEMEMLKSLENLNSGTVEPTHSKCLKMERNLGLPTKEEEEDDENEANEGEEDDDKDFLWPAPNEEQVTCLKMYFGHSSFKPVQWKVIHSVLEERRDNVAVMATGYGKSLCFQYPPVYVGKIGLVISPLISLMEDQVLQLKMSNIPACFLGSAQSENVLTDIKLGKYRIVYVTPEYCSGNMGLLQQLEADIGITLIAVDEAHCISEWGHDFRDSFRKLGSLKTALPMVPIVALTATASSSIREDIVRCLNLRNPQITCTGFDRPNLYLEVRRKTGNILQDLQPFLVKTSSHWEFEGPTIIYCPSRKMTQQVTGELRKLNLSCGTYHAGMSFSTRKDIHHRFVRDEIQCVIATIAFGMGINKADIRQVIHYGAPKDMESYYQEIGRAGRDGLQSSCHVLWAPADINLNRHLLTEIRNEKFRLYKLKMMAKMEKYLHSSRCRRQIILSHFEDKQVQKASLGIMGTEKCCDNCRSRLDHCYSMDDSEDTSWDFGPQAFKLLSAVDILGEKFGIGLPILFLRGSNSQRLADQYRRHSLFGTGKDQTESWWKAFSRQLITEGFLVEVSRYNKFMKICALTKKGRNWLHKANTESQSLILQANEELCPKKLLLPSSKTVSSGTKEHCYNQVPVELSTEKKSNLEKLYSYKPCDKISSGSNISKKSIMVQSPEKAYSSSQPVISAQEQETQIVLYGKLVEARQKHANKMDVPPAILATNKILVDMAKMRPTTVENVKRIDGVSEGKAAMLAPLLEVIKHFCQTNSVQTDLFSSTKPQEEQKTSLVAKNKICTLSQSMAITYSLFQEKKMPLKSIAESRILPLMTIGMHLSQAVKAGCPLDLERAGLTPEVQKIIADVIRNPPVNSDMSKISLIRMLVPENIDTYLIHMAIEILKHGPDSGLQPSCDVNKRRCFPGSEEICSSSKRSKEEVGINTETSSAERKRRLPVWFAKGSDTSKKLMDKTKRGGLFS
The experiment in a line: Inhibition of WRN enzyme activity (ATPase), ADP-Glo Kinase Assay. The format is biochemical. Conditions: WRN protein 5 nM, Flap 0.1 nM, ATP 30 µM; read-out: IC50. In a few lines:
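ATPase activity was measured by ADP-Glo luminescence after a 10-min room-temperature reaction with 30 µM ATP and 0.1 nM Flap26 oligonucleotide substrate. The 5 nM WRN had first been exposed to compound (0.004–1000 nM) for 15 min in pH 7.5 Tris buffer with 2 mM MgCl2. IC50 values came from log-concentration regression against the DMSO control.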

Data set [2] in a line: Metabolic stability in human liver microsomes. Format: in vitro ADME. Conditions: human liver microsomes 0.5 mg mL^-1, NADPH 1 mM, 0-60 min; read-out: Liver microsomal stability t1/2 (min) Human. The procedure:
The purpose of this study was to investigate the metabolic stability of the compounds of the present disclosure in human and dog liver microsomes.
The compounds were co-incubated with human (or dog) liver microsomes, and the reaction was initiated by adding coenzyme NADPH (1 mM). At 0, 5, 15, 30, and 60 minutes, 60 µL of incubation solution was removed, and 180 µL of acetonitrile containing internal standard (clopidogrel) was added to quench the reaction, the mixture was shaken for 10 seconds, centrifuged at 10000 rpm for 10 minutes, and the supernatant was taken for analysis by LC-MS/MS. The in vitro intrinsic clearance was calculated based on the elimination half-life of the test compound in the incubation system. Midazolam was used as an internal reference compound, with two parallel incubations for each. Incubation conditions are summarized in Table 6 below: Table 6 Incubation conditions for the example compounds of the present disclosure
The ratio of the peak area of analyte to internal standard (Aanalyte/AIS) was obtained from the instrument, and the remaining percentage (%Control) was calculated from the ratio of Aanalyte/AIS in non-zero time point samples to zero time samples. Ln (%Control) was plotted against incubation time and linearly fitted. The test compound clearance constant (k, min^-1) and clearance half-life (T1/2, min) were calculated using the following equations. k = −slope [formula] T1/2 = 0.693/k. [formula]

As to `CCc1c(N2CCN(C(=O)c3ncnc(C)c3O)CC2)c(=O)n2nc(-c3cc4ccccc4s3)nc2n1CC(=O)Nc1ccc(C(F)(F)F)cc1Cl` [Example 80, 2-(2-(benzo[b]thiophen-2-yl)-5-ethyl-6-(4-(5-hydroxy-6-methylpyrimidine-4-carbonyl)piperazin-1-yl)-7-oxo-[1,2,4]triazolo[1,5-a]pyrimidin-4(7H)-yl)-N-(2-chloro-4-(trifluoromethyl)phenyl)acet amide], the AUC(0-t) in data set [1] (read-out: Area under curve AUC0-t) stood at 104 µg·h/mL. Further, the half-life in data set [1] (read-out: Half-life T1/2 (converted)) was 2.11 h; in data set [2] it was 1300 min. Moreover, the Cmax in data set [1] (read-out: Plasma concentration Cmax) was 19800 ng/mL. In addition, the IC50 on recombinant human WRN was in the range of 1 to 100 nM.
